Data set [1] has as its target T1, Amine oxidase [flavin-containing] A (Homo sapiens, UniProt P21397).
T1 sequence (P21397 whole entry): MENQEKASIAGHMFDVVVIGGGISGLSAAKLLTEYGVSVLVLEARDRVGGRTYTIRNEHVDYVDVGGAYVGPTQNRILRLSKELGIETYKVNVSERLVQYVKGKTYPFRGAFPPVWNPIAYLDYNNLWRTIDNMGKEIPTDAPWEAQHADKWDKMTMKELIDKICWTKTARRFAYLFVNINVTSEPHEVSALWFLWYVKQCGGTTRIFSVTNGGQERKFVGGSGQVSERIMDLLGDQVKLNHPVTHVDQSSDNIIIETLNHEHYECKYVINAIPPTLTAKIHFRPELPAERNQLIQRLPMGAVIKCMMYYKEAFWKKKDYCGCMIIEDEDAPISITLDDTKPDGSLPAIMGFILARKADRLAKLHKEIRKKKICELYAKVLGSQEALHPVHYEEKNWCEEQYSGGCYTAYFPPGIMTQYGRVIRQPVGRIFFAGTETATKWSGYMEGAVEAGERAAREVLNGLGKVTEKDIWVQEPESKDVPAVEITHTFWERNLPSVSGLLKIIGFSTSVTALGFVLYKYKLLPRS
Put plainly: Inhibition of recombinant human MAO-A after 30 mins.

In data set [2] the target is T2, Amine oxidase [flavin-containing] B (Homo sapiens, UniProt P27338).
T2 sequence (P27338 whole entry): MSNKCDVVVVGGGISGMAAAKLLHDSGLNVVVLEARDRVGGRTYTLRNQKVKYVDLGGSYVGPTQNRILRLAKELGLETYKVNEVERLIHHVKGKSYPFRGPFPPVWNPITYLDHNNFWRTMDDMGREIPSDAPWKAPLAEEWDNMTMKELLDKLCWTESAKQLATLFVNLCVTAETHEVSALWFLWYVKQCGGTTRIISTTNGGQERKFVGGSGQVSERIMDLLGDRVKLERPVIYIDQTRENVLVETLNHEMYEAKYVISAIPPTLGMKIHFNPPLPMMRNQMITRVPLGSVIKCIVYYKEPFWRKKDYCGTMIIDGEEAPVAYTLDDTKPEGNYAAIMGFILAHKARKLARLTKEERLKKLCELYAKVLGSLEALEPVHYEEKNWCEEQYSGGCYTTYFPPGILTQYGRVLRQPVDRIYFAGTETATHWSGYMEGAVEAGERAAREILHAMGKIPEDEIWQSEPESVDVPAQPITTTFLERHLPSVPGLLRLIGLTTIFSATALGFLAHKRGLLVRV
Put plainly: Inhibition of recombinant human MAO-B after 30 mins.

The target in data set [3] is T1, Amine oxidase [flavin-containing] A. Description: Inhibition of recombinant human MAO-A assessed as reduction in 4-hydroxyquinoline formation using kynuramine as substrate after 20 mins by fluorometric assay.
Data set [4] has the same target. Put plainly: Competitive inhibition of recombinant human MAO-A assessed as reduction in 4-hydroxyquinoline formation using varying levels of kynuramine as substrate after 20 mins by Lineweaver-Burk plot analysis.
The target is the same in data set [5]. Put plainly: Time-dependent inhibition of recombinant human MAO-A assessed as reduction in 4-hydroxyquinoline formation at 0.5 uM using kynuramine as substrate preincubated up to 15 mins followed by substrate addition by fluorometric assay.
Data set [6] deals with T2, Amine oxidase [flavin-containing] B. Put plainly: Time-dependent inhibition of recombinant human MAO-B assessed as reduction in 4-hydroxyquinoline formation at 0.2 uM using kynuramine as substrate preincubated up to 15 mins followed by substrate addition by fluorometric assay.
Data set [7] concerns the target T1, Amine oxidase [flavin-containing] A. Put plainly: Inhibition of recombinant human MAO-A at 15 uM after 20 mins relative to control.
The target of data set [8] is T2, Amine oxidase [flavin-containing] B. Description: Inhibition of recombinant human MAO-B at 5 uM after 20 mins relative to control.
The target of data set [9] is T1, Amine oxidase [flavin-containing] A. Description: Reversible inhibition of recombinant human MAO-A assessed as recovery of enzyme activity at 15 uM preincubated for 20 mins followed by overnight dialysis relative to control. Details: scale not given: the % may be the effect or the level left; call rule not given here. The conditions noted are these: read-out: Activity.
The target in data set [10] is T2, Amine oxidase [flavin-containing] B. Put plainly: Reversible inhibition of recombinant human MAO-B assessed as recovery of enzyme activity at 5 uM preincubated for 20 mins followed by overnight dialysis. Details: scale not given: the % may be the effect or the level left.

Some results are limits rather than exact numbers.

For the compound `O=C1C[C@@H](c2ccc(O)cc2)Oc2cc(O)cc(O)c21` [NARINGENIN], the 50% inhibitory concentration (IC50) – broadly, the point on the concentration scale where inhibition reaches its midpoint – in [1] was 955 µM; in data set [2] it was 288 µM.

Turning to `COc1ccc(-c2cc(=O)c3c(O)cc(O)cc3o2)cc1` [ACACETIN], the IC50 in data set [3] was 0.121 µM. Moreover, the Ki (as a rule, a dissociation constant, usually derived from enzyme kinetics or from competition with a known ligand) in data set [4] amounted to 0.0592 µM. Also, the TDI entry in data set [5] and in data set [6] was “Not Active” in each case. Also, in [7], the inhibition (commonly how much of the control response was suppressed) at 15 µM is more than 95%. Also, in data set [8], the “inhibition (INH)” value was 90%. Besides, the activity at 15 µM in data set [9] was more than 90%. Moreover, in data set [10], the Activity came to 90%.
